According to patent US20210060121A1, “NOVEL ANTIBIOTICS AND METHODS OF USING THEM” (priority 2018, published 2021):
In brackets after ≈: the same amount, converted by molar mass.

Legend:
MRSA and SA strains = assay: MIC, summary over S. aureus strains; type: cell-based, Staphylococcus aureus; conditions: MRSA clinical isolate and MSSA ATCC29213; from MICs
Method: (§1) Susceptibility to teixobactin and its analogues was tested on the selected Gram-positive strains using Tecan Freedom EVO high-throughput automated platform, following the standard broth dilution method as described by the Clinical and Laboratory Standards Institute ^3. MICS were determined according to CLSI guideline.

SA (ATCC29213) = type: cell-based, Staphylococcus aureus
Method: as §1

MRSA(SA11I4) = type: cell-based, Staphylococcus aureus
Method: as §1

[1] = system: Staphylococcus aureus strain ATCC43300; assay: Wax worm survival model infected with S. aureus; type: in vivo, Galleria mellonella
Excerpt: FIG. 2. In vivo antibacterial activities of certain antibiotics of the invention. Efficacy of teixobactin and certain antibiotics of the invention for treating infections caused by Staphylococcus aureus strain ATCC43300 was studied in wax worm larvae (Galleria mellonella) model. PBS, control group without infection and treated with PBS: All other groups (20 each group) were infected with 10^7 CFU of S. aureus strain ATCC43300 followed by no treatment or treatment with one dose of vancomycin at 10 mg/kg (A-10) or 50 mg/kg (A-50), teixobactin at 10 mg/kg (B-10) or 50 mg/kg (B-50), or one dose of the representative analogue, Chg10-teixobactin, at 10 mg/kg (C-10) or 50 mg/kg (C-50).
Exemplary in vivo antibacterial activity: Chg10-Teixobactin was studied in wax worm survival models infected with S. aureus strain ATCC43300. Teixobactin were used as controls. […] At a dose of 50 mg/kg, Chg10-Teixobactin protected 100% infected wax worms (See FIG. 2).

CC[C@@H](C)[C@@H](NC(=O)[C@@H](CCC(N)=O)NC(=O)[C@H](CO)NC(=O)[C@@H](NC(=O)[C@@H](Cc1ccccc1)NC)[C@@H](C)CC)C(=O)N[C@H](C(=O)N[C@@H](CO)C(=O)N[C@H]1C(=O)N[C@@H](C)C(=O)N[C@@H](CC2CCCCC2)C(=O)N[C@@H]([C@@H](C)CC)C(=O)O[C@H]1C)[C@@H](C)CC [Cha10-teixobactin]
Antibacterial activity compared with teixobactin (MRSA and SA strains): comparable activities as teixobactin | Minimum inhibitory concentration (MIC) SA (ATCC29213) (SA (ATCC29213)): 0.5 µg/mL (≈ 0.403 µM) | Minimum inhibitory concentration (MIC) MRSA(SA11I4) (MRSA(SA11I4)): 2 µg/mL (≈ 1.61 µM)

CC[C@@H](C)[C@@H](NC(=O)[C@@H](CCC(N)=O)NC(=O)[C@H](CO)NC(=O)[C@@H](NC(=O)[C@@H](Cc1ccccc1)NC)[C@@H](C)CC)C(=O)N[C@H](C(=O)N[C@@H](CO)C(=O)N[C@H]1C(=O)N[C@@H](C)C(=O)N[C@@H](C2CCCCC2)C(=O)N[C@@H]([C@@H](C)CC)C(=O)O[C@H]1C)[C@@H](C)CC [Chg10-teixobactin]
Infected wax worms protected ([1]; one dose of 50 mg/kg, wax worms infected with S. aureus ATCC43300): 100% | In vivo antibacterial activities, teixobactin as control ([1]; one dose treatment, wax worm survival model, S. aureus ATCC43300): improved antibacterial activities | Antibacterial activity compared with teixobactin (MRSA and SA strains): two times higher activities than teixobactin | Minimum inhibitory concentration (MIC) SA (ATCC29213) (SA (ATCC29213)): 0.25 µg/mL (≈ 0.204 µM) | Minimum inhibitory concentration (MIC) MRSA(SA11I4) (MRSA(SA11I4)): 1 µg/mL (≈ 0.815 µM)

CC[C@@H](C)[C@@H](NC(=O)[C@@H](CCC(N)=O)NC(=O)[C@H](CO)NC(=O)[C@@H](NC(=O)[C@@H](Cc1ccccc1)NC)[C@@H](C)CC)C(=O)N[C@H](C(=O)N[C@@H](CO)C(=O)N[C@H]1C(=O)N[C@@H](C)C(=O)N[C@@H](CCSC)C(=O)N[C@@H]([C@@H](C)CC)C(=O)O[C@H]1C)[C@@H](C)CC [Met10-teixobactin/Methibactin, Met10-teixobactin]
Antibacterial activity compared with teixobactin (MRSA and SA strains): two times higher activities than teixobactin | Minimum inhibitory concentration (MIC) SA (ATCC29213) (SA (ATCC29213)): 0.25 µg/mL (≈ 0.205 µM) | Minimum inhibitory concentration (MIC) MRSA(SA11I4) (MRSA(SA11I4)): 1 µg/mL (≈ 0.82 µM)

CCCC[C@@H]1NC(=O)[C@H](C)NC(=O)[C@H](NC(=O)[C@H](CO)NC(=O)[C@@H](NC(=O)[C@H](NC(=O)[C@@H](CCC(N)=O)NC(=O)[C@H](CO)NC(=O)[C@@H](NC(=O)[C@@H](Cc2ccccc2)NC)[C@@H](C)CC)[C@H](C)CC)[C@@H](C)CC)[C@H](C)OC(=O)[C@H]([C@@H](C)CC)NC1=O [Nle10-teixobactin]
Antibacterial activity compared with teixobactin (MRSA and SA strains): comparable activities as teixobactin | Minimum inhibitory concentration (MIC) SA (ATCC29213) (SA (ATCC29213)): 0.5 µg/mL (≈ 0.416 µM) | Minimum inhibitory concentration (MIC) MRSA(SA11I4) (MRSA(SA11I4)): 2 µg/mL (≈ 1.66 µM)

CCC[C@@H]1NC(=O)[C@H](C)NC(=O)[C@H](NC(=O)[C@H](CO)NC(=O)[C@@H](NC(=O)[C@H](NC(=O)[C@@H](CCC(N)=O)NC(=O)[C@H](CO)NC(=O)[C@@H](NC(=O)[C@@H](Cc2ccccc2)NC)[C@@H](C)CC)[C@@H](C)CC)[C@@H](C)CC)[C@H](C)OC(=O)[C@H]([C@@H](C)CC)NC1=O [Nva10-teixobactin]
Antibacterial activity compared with teixobactin (MRSA and SA strains): two times higher activities than teixobactin | Minimum inhibitory concentration (MIC) SA (ATCC29213) (SA (ATCC29213)): 0.25 µg/mL (≈ 0.211 µM) | Minimum inhibitory concentration (MIC) MRSA(SA11I4) (MRSA(SA11I4)): 1 µg/mL (≈ 0.842 µM)

CC[C@H](C)[C@H](NC(=O)[C@@H](Cc1ccccc1)NC)C(=O)N[C@@H](CO)C(=O)N[C@H](CCC(N)=O)C(=O)N[C@@H](C(=O)N[C@H](C(=O)N[C@@H](CO)C(=O)N[C@H]1C(=O)N[C@@H](C)C(=O)N[C@@H](Cc2ccc(F)cc2)C(=O)N[C@@H]([C@@H](C)CC)C(=O)O[C@H]1C)[C@@H](C)CC)[C@@H](C)CC [Phe(4-F)10-teixobactin/Flurobactin, Phe(4-F)10-teixobactin]
Antibacterial activity compared with teixobactin (MRSA and SA strains): two times higher activities than teixobactin | Minimum inhibitory concentration (MIC) SA (ATCC29213) (SA (ATCC29213)): 0.5 µg/mL (≈ 0.399 µM) | Minimum inhibitory concentration (MIC) MRSA(SA11I4) (MRSA(SA11I4)): 1 µg/mL (≈ 0.798 µM)
